Values after ≈ are worked out from the molar mass of the structure shown. Where two headings read alike, the source gives them in different places. Bridge positions count the residues as written; N and C are the ends. Square brackets hold non-standard residues; d marks the D form. Peptide text beside a SMILES is read from it. * marks the point of attachment. ξ: configuration not given here. Thr(3ξ) = CC(O)[C@H](N)C(=O)O; X9 = CC(C)[C@H](N)CCC(=O)*; Octanoyl = CCCCCCCC(=O)*; Dab = NCC[C@H](N)C(=O)O; X15 = O=C(C1CCNC1)*; GABA = NCCCC(=O)O; βAla = NCCC(=O)O
Key:
[1] = test system: E. coli
[2] = test system: A. baumannii
[3] = test system: K. pneumoniae
[4] = test system: P. aeruginosa
[5] = absence of a second agent, Table 6B

Molecule | MIC, E. coli ATCC 25922 [1, 5] [micrograms/mL] | MIC, E. coli NCTC 13441 [1, 5] [micrograms/mL] | MIC, A. baumannii ATCC BAA-747 [2, 5] [micrograms/mL] | MIC, A. baumannii NCTC 13424 [2, 5] [micrograms/mL] | MIC, K. pneumoniae ATCC 4352 [3, 5] [micrograms/mL] | MIC, K. pneumoniae ATCC BAA-2146 [3, 5] [micrograms/mL] | MIC, P. aeruginosa ATCC 27853 [4, 5] [micrograms/mL] | MIC, P. aeruginosa CCUG 59347 [4, 5] [micrograms/mL] | MIC [2] [µg/mL] | further results
1,2,3,4- tetrahydroisoquinoline- 4-carbonyl polymyxin B nonapeptide [Example D14] | >8 | >8 | >8 | >8 | >8 | >8 | 1 | 4 | – | –
1-(2- trifluoromethylben- zyl)piperazine- 2-carbonyl Polymyxin B nonapeptide [Example D55] | – | – | – | – | – | – | – | – | – | MIC, E. coli ATCC 25922 ([1]; sole activity, Table 6C): 0.25 micrograms/mL; MIC, E. coli NCTC 13441 ([1]; sole activity, Table 6C): 0.25 micrograms/mL; MIC, A. baumannii ATCC BAA-747 ([2]; sole activity, Table 6C): 0.25 micrograms/mL; MIC, A. baumannii NCTC 13424 ([2]; sole activity, Table 6C): 0.5 micrograms/mL; MIC, K. pneumoniae ATCC 4352 ([3]; sole activity, Table 6C): 0.25 micrograms/mL; MIC, K. pneumoniae ATCC BAA-2146 ([3]; sole activity, Table 6C): 0.5 micrograms/mL; MIC, P. aeruginosa ATCC 27853 ([4]; sole activity, Table 6C): 0.5 micrograms/mL; MIC, P. aeruginosa CCUG 59347 ([4]; sole activity, Table 6C): 1 micrograms/mL
2-(2-aminoethyl)-4- methyl pentanoyl polymyxin B nonapeptide [Example D45] | 0.5 | 2 | 8 | 4 | 0.5 | 2 | 1 | 4 | – | –
2-(2-aminoethyl)-4- methyl pentanoyl polymyxin B nonapeptide [Example D46] | 1 | 1 | 1 | 2 | 0.5 | 1 | 0.5 | 1 | – | –
2-aminomethyl-3- naphthalen-2-yl- propanoyl polymyxin B nonapeptide [Example D40] | 2 | 2 | >8 | 8 | 2 | 4 | 0.5 | 1 | – | –
2-aminomethyl-3- naphthalen-2-yl- propanoyl polymyxin B nonapeptide [Example D41] | 1 | 1 | 2 | 1 | 2 | – | 0.5 | 1 | – | –
2-benzyl-3- (methylamino)pro- panoyl polymyxin B nonapeptide [Example D57] | – | – | – | – | – | – | – | – | – | MIC, E. coli ATCC 25922 ([1]; sole activity, Table 6C): 0.25 micrograms/mL; MIC, E. coli NCTC 13441 ([1]; sole activity, Table 6C): 0.5 micrograms/mL; MIC, A. baumannii ATCC BAA-747 ([2]; sole activity, Table 6C): 4 micrograms/mL; MIC, A. baumannii NCTC 13424 ([2]; sole activity, Table 6C): 2 micrograms/mL; MIC, K. pneumoniae ATCC 4352 ([3]; sole activity, Table 6C): 0.25 micrograms/mL; MIC, K. pneumoniae ATCC BAA-2146 ([3]; sole activity, Table 6C): 0.25 micrograms/mL; MIC, P. aeruginosa ATCC 27853 ([4]; sole activity, Table 6C): 0.5 micrograms/mL; MIC, P. aeruginosa CCUG 59347 ([4]; sole activity, Table 6C): 1 micrograms/mL
4- (isobutylamino)pi- peridine-3- carbonyl L-Thr-L- Dap-polymyxin B heptapeptide [Example D74] | – | – | – | – | – | – | – | – | – | MIC, E. coli ATCC 25922 ([1]; sole activity, Table 6C): 0.25 micrograms/mL; MIC, E. coli NCTC 13441 ([1]; sole activity, Table 6C): 0.25 micrograms/mL; MIC, A. baumannii ATCC BAA-747 ([2]; sole activity, Table 6C): 2 micrograms/mL; MIC, A. baumannii NCTC 13424 ([2]; sole activity, Table 6C): 2 micrograms/mL; MIC, K. pneumoniae ATCC 4352 ([3]; sole activity, Table 6C): 0.125 micrograms/mL; MIC, K. pneumoniae ATCC BAA-2146 ([3]; sole activity, Table 6C): 0.5 micrograms/mL; MIC, P. aeruginosa ATCC 27853 ([4]; sole activity, Table 6C): 0.25 micrograms/mL; MIC, P. aeruginosa CCUG 59347 ([4]; sole activity, Table 6C): 0.5 micrograms/mL
4-Amino-2-benzyl butanoylpolymyxin B nonapeptide [Example D3] | 0.25 | 0.5 | >8 | >8 | 1 | 2 | 0.5 | 1 | – | –
4-octylpiperidine-3- carbonyl polymyxin B nonapeptide [Example D34] | 1 | 1 | 2 | 2 | 2 | 2 | 1 | 2 | – | –
5- (isobutylamino)pi- peridine-3- carbonyl Polymyxin B nonapeptide [Example D62] | – | – | – | – | – | – | – | – | – | MIC, E. coli ATCC 25922 ([1]; sole activity, Table 6C): 0.5 micrograms/mL; MIC, E. coli NCTC 13441 ([1]; sole activity, Table 6C): 1 micrograms/mL; MIC, A. baumannii ATCC BAA-747 ([2]; sole activity, Table 6C): 4 micrograms/mL; MIC, A. baumannii NCTC 13424 ([2]; sole activity, Table 6C): 4 micrograms/mL; MIC, K. pneumoniae ATCC 4352 ([3]; sole activity, Table 6C): 0.5 micrograms/mL; MIC, K. pneumoniae ATCC BAA-2146 ([3]; sole activity, Table 6C): 1 micrograms/mL; MIC, P. aeruginosa ATCC 27853 ([4]; sole activity, Table 6C): 1 micrograms/mL; MIC, P. aeruginosa CCUG 59347 ([4]; sole activity, Table 6C): 2 micrograms/mL
5-((2- methylpropyl)sulfon- amido)piperidine- 3-carbonyl- polymyxin B nonapeptide [Example D73] | – | – | – | – | – | – | – | – | – | MIC, E. coli ATCC 25922 ([1]; sole activity, Table 6C): 0.25 micrograms/mL; MIC, E. coli NCTC 13441 ([1]; sole activity, Table 6C): 0.5 micrograms/mL; MIC, A. baumannii ATCC BAA-747 ([2]; sole activity, Table 6C): 4 micrograms/mL; MIC, A. baumannii NCTC 13424 ([2]; sole activity, Table 6C): 2 micrograms/mL; MIC, K. pneumoniae ATCC 4352 ([3]; sole activity, Table 6C): 0.5 micrograms/mL; MIC, K. pneumoniae ATCC BAA-2146 ([3]; sole activity, Table 6C): 0.5 micrograms/mL; MIC, P. aeruginosa ATCC 27853 ([4]; sole activity, Table 6C): 1 micrograms/mL; MIC, P. aeruginosa CCUG 59347 ([4]; sole activity, Table 6C): 2 micrograms/mL
CCCCCCCC(=O)N[C@@H](CCN)C(=O)N[C@H](C(=O)N[C@@H](CCN)C(=O)N[C@H]1CCNC(=O)[C@H]([C@@H](C)O)NC(=O)[C@H](CCN)NC(=O)[C@H](CCN)NC(=O)[C@H](CC(C)C)NC(=O)[C@@H](Cc2ccccc2)NC(=O)[C@H](CCN)NC1=O)C(C)O (some centres unmarked) [CC4, Octanoyl polymyxin B decapeptide, reference compound] (Octanoyl-[Dab][Thr(3ξ)][Dab][Dab][Dab][dF]L[Dab][Dab]T; lactam 4-C) | – | – | – | – | – | – | – | – | 1 (≈ 0.841 µM) | –
CCCCCCCC(=O)NCC(=O)N[C@H](C(=O)N[C@@H](CCN)C(=O)N[C@H]1CCNC(=O)[C@H]([C@@H](C)O)NC(=O)[C@H](CCN)NC(=O)[C@H](CCN)NC(=O)[C@H](CC(C)C)NC(=O)[C@@H](Cc2ccccc2)NC(=O)[C@H](CCN)NC1=O)C(C)O (some centres unmarked) [CC5, Octanoyl-Gly- Polymyxin B nonapeptide, reference compound] (Octanoyl-G[Thr(3ξ)][Dab][Dab][Dab][dF]L[Dab][Dab]T; lactam 4-C) | – | – | – | – | – | – | – | – | >8 | MIC [1]: 8 µg/mL (≈ 6.98 µM); MIC [3]: 8 µg/mL (≈ 6.98 µM)
CCCCCCCC(=O)N[C@H](C(=O)N[C@@H](CCN)C(=O)N[C@H]1CCNC(=O)[C@H]([C@@H](C)O)NC(=O)[C@H](CCN)NC(=O)[C@H](CCN)NC(=O)[C@H](CC(C)C)NC(=O)[C@@H](Cc2ccccc2)NC(=O)[C@H](CCN)NC1=O)[C@@H](C)O [CC6, Octanoyl polymyxin B nonapeptide, reference compound] (Octanoyl-T[Dab][Dab][Dab][dF]L[Dab][Dab]T; lactam 3-C) | – | – | – | – | – | – | – | – | 4 (≈ 3.67 µM) | MIC [1]: 0.5 µg/mL (≈ 0.459 µM)
CC(C)C[C@@H]1NC(=O)[C@@H](Cc2ccccc2)NC(=O)[C@H](CCN)NC(=O)[C@@H](NC(=O)[C@H](CCN)NC(=O)[C@@H](NC(=O)CCCN)[C@@H](C)O)CCNC(=O)[C@H]([C@@H](C)O)NC(=O)[C@H](CCN)NC(=O)[C@H](CCN)NC1=O [Example B5, reference compound] (H-[GABA]T[Dab][Dab][Dab][dF]L[Dab][Dab]T; lactam 4-C) | – | – | – | – | – | – | – | – | 4 (≈ 3.82 µM) | –
CC(C)C[C@@H]1NC(=O)[C@@H](Cc2ccccc2)NC(=O)[C@H](CCN)NC(=O)[C@@H](NC(=O)[C@H](CCN)NC(=O)[C@@H](NC(=O)CC[C@@H](N)C(C)C)[C@@H](C)O)CCNC(=O)[C@H]([C@@H](C)O)NC(=O)[C@H](CCN)NC(=O)[C@H](CCN)NC1=O [Example B6, reference compound] (X9-T[Dab][Dab][Dab][dF]L[Dab][Dab]T; lactam 3-C) | – | – | – | – | – | – | – | – | >8 | MIC [1]: 8 µg/mL (≈ 7.34 µM); MIC [4]: 4 µg/mL (≈ 3.67 µM)
CC(C)C[C@@H]1NC(=O)[C@@H](Cc2ccccc2)NC(=O)[C@H](CCN)NC(=O)[C@@H](NC(=O)[C@H](CCN)NC(=O)[C@@H](NC(=O)CCN)[C@@H](C)O)CCNC(=O)[C@H]([C@@H](C)O)NC(=O)[C@H](CCN)NC(=O)[C@H](CCN)NC1=O [Example B7, reference compound] (H-[βAla]T[Dab][Dab][Dab][dF]L[Dab][Dab]T; lactam 4-C) | – | – | – | – | – | – | – | – | >8 | –
CC(C)C[C@@H]1NC(=O)[C@@H](Cc2ccccc2)NC(=O)[C@H](CCN)NC(=O)[C@@H](NC(=O)[C@H](CCN)NC(=O)[C@@H](NC(=O)C2CCNC2)[C@@H](C)O)CCNC(=O)[C@H]([C@@H](C)O)NC(=O)[C@H](CCN)NC(=O)[C@H](CCN)NC1=O (some centres unmarked) [Example B8, reference compound] (X15-T[Dab][Dab][Dab][dF]L[Dab][Dab]T; lactam 3-C) | – | – | – | – | – | – | – | – | – | MIC [1]: 4 µg/mL (≈ 3.77 µM)
